Assay results as given in patent US20240197658A1, “COMPOSITION FOR INHIBITING ANTI-CANCER DRUG RESISTANCE” (AJOU UNIVERSITY INDUSTRY-ACADEMIC COOPERATION FOUNDATION, priority 2022, published 2024).

Legend:
Format in all cases: cell-based
[1] = test system: fibroblasts CAF47, CAF51, CAF98, and CAF104; experiment: Confirmation of inhibition of senescence of fibroblasts (shape observation); details: FIG. 2
Method: An experiment was performed to confirm changes in shapes of fibroblasts by treating several fibroblasts CAF47, CAF51, CAF98, and CAF104 with an anti-cancer drug, 5-fluorouracil (5-FU), and then treating Example thereto.
FIG. 2 illustrates results of observing the shapes of fibroblasts under various conditions according to Experimental Example of the present disclosure.

SNU668 cells = experiment: Cell viability of gastric cancer cells cultured in fibroblast conditioned media; details: FIG. 3
Method: Gastric cancer cells, SNU668 cells, were cultured in conditioned media of fibroblasts, CAF98 and CAF104, respectively, and treated with Example to confirm changes in cell viability of cancer cells.
FIG. 3 illustrates results of confirming the cell viability of SNU66, a gastric cancer cell, under various conditions according to Experimental Example of the present disclosure.

SNU668 = experiment: Migration of gastric cancer cells in fibroblast condition media / co-culture with CAFs; details: for migration of gastric cancer cells: FIGS. 4 and 5
Method: An experiment was performed to confirm changes in migration of gastric cancer cells when treating gastric cancer cells with a substance according to Example (ftaxilide).
SNU668 was co-cultured with 5-FU in various types of fibroblast condition media, and sequentially additionally treated with 5-FU and Example to confirm changes in the migration of gastric cancer cells.
FIG. 4 illustrates results of observing the migration of SNU668, a gastric cancer cell, under various conditions according to Experimental Example of the present disclosure.
FIG. 5 illustrates results of measuring the migration of SNU668, a gastric cancer cell, under various conditions according to Experimental Example of the present disclosure.

[2] = CAF treated with Example (100 μM 5-FU+5 μM Example)

Structure (SMILES) | shapes of fibroblasts (characteristics of senescent cells) ([1]; fibroblasts CAF47, CAF51, CAF98, CAF104 treated with 5-FU) | cell viability of cancer cells (SNU668 cells; SNU668 in conditioned medium of CAF98 and CAF104, treated with 5-FU (C98_5FU, C104_5FU)) | migration of gastric cancer cells (SNU668; CAFs senesced by 5-FU then co-cultured with SNU668 (100 μM 5-FU)) | migration of gastric cancer cells (SNU668; SNU668 treated with 5-FU (SNU668+5FU)) | shapes of fibroblasts ([1]; fibroblasts treated with 5-FU, then with Example) | cell viability of cancer cells (SNU668 cells; SNU668 in conditioned medium of CAF98 and CAF104, 5-FU, further treated with Example (C98_5FU_Ftaxil, C104_5FU_Ftaxil)) | senescence of CAF (SNU668; [2]) | migration of gastric cancer cells (SNU668; [2])
O=c1[nH]cc(F)c(=O)[nH]1 [Example 5-FU, 5-fluorouracil] | the cell sizes increased and the cell growth rate slowed down | the cell viability of cancer cells further increased | the migration of gastric cancer cells further increased | the migration of gastric cancer cells increased | – | – | – | –
Cc1cccc(C)c1NC(=O)c1ccccc1C(=O)O [Example, Ftaxilide] | – | – | – | – | the senescent fibroblasts returned to their original shapes | decreased again | the senescence of CAF was prevented | decreased again
